Data on two compounds can be found in article doi:10.1101/2025.10.22.684062 (bioRxiv, 2025).

pIC50: −log10 of the molar value. Peptide text beside a SMILES is read from it.

Series [1] can be described thus: In vivo plasma pharmacokinetics. The note with it: ip, male C57BL/6 mouse, 5mg/kg intraperitoneal, LC-MS/MS. As for the experimental part: Blood samples (100 μl) were obtained at 0, 0.25, 0.5, 1, 2, 4, 8, and 24 hours via tail vein bleeds.
A further series deals with B16-F10 melanoma tumors. Kind of series: B16-F10 syngeneic mouse tumor model. The series is classed as in vivo, C57BL/6 mice. The note with it: CST 10 mg/kg i.p. three times per week, tumor-bearing mice, n=9. How it is done: Age-matched male and female C57BL/6 mice (7–9 weeks, n = 9) were subcutaneously injected with 5 × 10^4 B16-F10 cells in 100 μL PBS. […] Tumor dimensions were measured with calipers, and volume was calculated using the formula V = (length × width^2)/2. Mice were euthanized 22 days post-inoculation. All procedures were approved by the IACUC of UCSD and the VA San Diego Healthcare System and conformed to NIH guidelines.
Tumors were fixed, paraffin-embedded, and sectioned (5 μm). Hematoxylin and eosin staining was performed at the La Jolla Institute for Immunology. Immunohistochemistry was carried out using the Super Sensitive™ M Polymer-HRP Kit (Biogenex). After deparaffinization, antigen retrieval was performed using Histo VT (Nacalai) at 90°C for 20 min. Sections were incubated overnight at 4°C with anti–Ki-67 (Abcam) or anti-CST (gift from Angelo Corti) at 1:100 dilution. Detection was performed with DAB and counterstained with hematoxylin. Slides were dehydrated and mounted in DPX. […]
Apoptotic nuclei were detected in tumor sections using the CF®594 TUNEL Assay Kit (Biotium). […] Fluorescence images were obtained using a Keyence microscope.
Tumor lysates were prepared in RIPA buffer containing protease inhibitors (Thermo Fisher). […] HRP-conjugated secondary antibodies (Cell Signaling Technology) were used, and signals were detected by chemiluminescence. […]

For series [2], the system named is Vemurafenib-sensitive A375 cell line. Kind of series: Cell viability assay, Vemurafenib-sensitive (parental) A375 cells. The note with it: Homo sapiens, A-375. It counts as cell-based. As for the experimental part:
(§1) Viability was determined using the CCK-8 reagent (APExBIO). Absorbance was measured at 450 nm using a Varioskan LUX reader.
(§2) Vemurafenib-resistant A375 cells were generated following established protocol. Parental cells were treated with 100 nM Vemurafenib for 2 weeks, followed by stepwise doubling of drug concentration every 2 weeks up to 3.2 μM. Surviving cells in maintenance culture containing 2 μM drug was used for downstream studies.

For series [3], the system named is Vemurafenib-resistant A375 cell line. As to the kind of experiment: Cell viability assay, Vemurafenib-resistant A375 cells. The series is classed as cell-based, human. As for the experimental part:
as §1, §2

For `CSCC[C@H](NC(=O)[C@H](CO)NC(=O)[C@@H](N)CO)C(=O)N[C@@H](CCCCN)C(=O)N[C@@H](CC(C)C)C(=O)N[C@@H](CO)C(=O)N[C@@H](Cc1ccccc1)C(=O)N[C@@H](CCCNC(=N)N)C(=O)N[C@@H](C)C(=O)N[C@@H](CCCNC(=N)N)C(=O)N[C@@H](C)C(=O)N[C@@H](Cc1ccc(O)cc1)C(=O)NCC(=O)N[C@@H](Cc1ccccc1)C(=O)N[C@@H](CCCNC(=N)N)C(=O)NCC(=O)N1CCC[C@H]1C(=O)NCC(=O)N1CCC[C@H]1C(=O)N[C@@H](CCC(N)=O)C(=O)N[C@@H](CC(C)C)C(=O)O` [CST, Catestatin] (H-SSMKLSFRARAYGFRGPGPQL-OH), the half-life in series [1] (read-out: t1/2 (half-life) (converted)) was 82.8 min. Further, the Cmax in series [1] (tail vein bleeds 0-24 hours, read-out: Cmax (maximum concentration)) was 148 ng/mL. Moreover, the “body weight and liver histology” value with B16-F10 melanoma tumors is reported as “No major changes in body weight or liver histology”.

Regarding `CCCS(=O)(=O)Nc1ccc(F)c(C(=O)c2c[nH]c3ncc(-c4ccc(Cl)cc4)cc23)c1F` [Vemurafenib], the pIC50 in series [2] is 6.64; in series [3] (Homo sapiens, vemurafenib-resistant A-375, Vemurafenib-resistant A375 cells), 5.84. Also, the “fold increase of IC50, resistant versus parental A375 cells” value in series [3] (resistant vs parental A375) is reported as greater than 6 fold.
